Results on eight compounds are retold here after ChEMBL document CHEMBL1147137, “Structure-activity relationship of uridine 5'-diphosphoglucose analogues as agonists of the human P2Y14 receptor” (J Med Chem, 2007).

pEC50: −log10 of the molar value.

One experiment addresses T1, P2Y purinoceptor 14 (Homo sapiens, UniProt Q15391).
T1 sequence (Q15391 whole entry): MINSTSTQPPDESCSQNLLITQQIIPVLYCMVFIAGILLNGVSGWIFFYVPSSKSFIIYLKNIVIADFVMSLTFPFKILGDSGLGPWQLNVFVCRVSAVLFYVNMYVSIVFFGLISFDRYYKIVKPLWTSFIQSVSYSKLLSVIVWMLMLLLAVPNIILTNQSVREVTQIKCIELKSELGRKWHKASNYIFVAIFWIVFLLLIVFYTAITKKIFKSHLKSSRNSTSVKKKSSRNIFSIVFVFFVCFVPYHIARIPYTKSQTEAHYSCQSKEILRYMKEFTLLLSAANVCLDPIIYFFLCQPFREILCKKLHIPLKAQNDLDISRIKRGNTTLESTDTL
In words: Agonist activity at human P2Y14 expressed in COS7 cells assessed as stimulation of PLC-mediated [3H]inositol hydrolysis.
Conditions: not given
The experiment is classed as functional, cell-based, COS-7.
Consider `O=c1ccn([C@@H]2O[C@H](COP(=O)(O)OP(=O)(O)OC[C@@]3(O)O[C@H](CO)[C@@H](O)[C@@H]3O)[C@@H](O)[C@H]2O)c(=O)[nH]1`, for which the EC50 is 0.88 µM (agonist).
The same measure, in the same setting: for `O=C(O)[C@H]1O[C@H](OP(=O)(O)OP(=O)(O)OC[C@H]2O[C@@H](n3ccc(=O)[nH]c3=O)[C@H](O)[C@@H]2O)[C@H](O)[C@@H](O)[C@@H]1O` the value was 0.37 µM (agonist); for `O=c1ccn([C@@H]2O[C@H](COP(=O)(O)OP(=O)(O)O[C@H]3O[C@H](CO)[C@@H](O)[C@H](O)[C@H]3O)[C@@H](O)[C@H]2O)c(=S)[nH]1`, 0.049 µM (agonist); for `O=c1[nH]c(=S)ccn1[C@@H]1O[C@H](COP(=O)(O)OP(=O)(O)O[C@H]2O[C@H](CO)[C@@H](O)[C@H](O)[C@H]2O)[C@@H](O)[C@H]1O`, 0.35 µM (agonist).
Same read-out and setting: for `O=C(O)[C@H]1O[C@H](OP(=O)(O)OP(=O)(O)OC[C@H]2O[C@@H](n3ccc(=O)[nH]c3=S)[C@H](O)[C@@H]2O)[C@H](O)[C@@H](O)[C@@H]1O` the value was 0.42 µM (agonist); for `O=c1ccn([C@@H]2O[C@H](COP(=O)(O)OP(=O)(O)O[C@H]3[C@H](O)[C@@H](O)[C@H](O)[C@@H](O)[C@@H]3O)[C@@H](O)[C@H]2O)c(=O)[nH]1`, 1.88 µM (agonist).
Take `CSc1ccn([C@@H]2O[C@H](COP(=O)(O)OP(=O)(O)O[C@H]3O[C@H](CO)[C@@H](O)[C@H](O)[C@H]3O)[C@@H](O)[C@H]2O)c(=O)n1`: the negative-log EC50 (pEC50) is < 5.00.

The experiment is the same for the next values; noted with them: cos-7.
As to `CC(=O)N[C@@H]1[C@H](OP(=O)(O)OP(=O)(O)OC[C@H]2O[C@@H](n3ccc(=O)[nH]c3=O)[C@H](O)[C@@H]2O)O[C@@H](CO)[C@H](O)[C@H]1O` (stereo in doubt), the concentration giving a half-maximal response (EC50) is 0.81 µM (agonist).
